Reference: ChEMBL document CHEMBL1201862, “PubChem BioAssay data set” (2004)
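Test compounds were applied to cells in 96-well plates for 48 hours at 5 doses. GI50: concentration for 50% inhibition of growth.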 Activity calls are given as the source filed them. Cut-off read from the data, not from the text of the source: active = GI50 up to about 1.1 µM and inactive = higher.

What was measured:
Experiment in all cases: growth of human tumour cells (NCI), 48 h
[1] = system: UACC-257
[2] = system: HOP-62
[3] = system: BT-549
[4] = system: T47D
[5] = system: OVCAR-4
[6] = system: HOP-92
[7] = system: SK-MEL-5
[8] = system: PC-3
[9] = system: UACC-62
[10] = system: M14
[11] = system: OVCAR-8
[12] = system: EKVX
[13] = system: Malme-3M
[14] = system: SK-OV-3
[15] = system: SK-MEL-2
[16] = system: A498
[17] = system: NCI-H23
[18] = system: RXF 393
[19] = system: MDA-MB-231
[20] = system: SW-620

| Compound | GI50 [1] | GI50 [2] | GI50 [3] | GI50 [4] | GI50 [5] | GI50 [6] | GI50 [7] | GI50 [8] | GI50 [9] | GI50 [10] | GI50 [11] | GI50 [12] | GI50 [13] | GI50 [14] | GI50 [15] | GI50 [16] | GI50 [17] | GI50 [18] | GI50 [19] | GI50 [20] |
| --- | --- | --- | --- | --- | --- | --- | --- | --- | --- | --- | --- | --- | --- | --- | --- | --- | --- | --- | --- | --- |
| O=C(O)CCC(=O)c1ccc[nH]1 | 94 µM (inactive) | > 100 µM (inactive) | > 100 µM (inactive) | > 100 µM (inactive) | > 100 µM (inactive) | > 100 µM (inactive) | > 100 µM (inactive) | > 100 µM (inactive) | > 100 µM (inactive) | > 100 µM (inactive) | > 100 µM (inactive) | > 100 µM (inactive) | > 100 µM (inactive) | > 100 µM (inactive) | > 100 µM (inactive) | > 100 µM (inactive) | > 100 µM (inactive) | > 100 µM (inactive) | > 100 µM (inactive) |  |
| CCc1nc2cc(/N=N/c3c(O)ccc4ccccc34)ccc2[nH]1 | 14.5 µM (inactive) | 21.1 µM (inactive) | 18.7 µM (inactive) | 24.3 µM (inactive) | 14 µM (inactive) | 20.5 µM (inactive) | 18.5 µM (inactive) | 14.6 µM (inactive) | 18.2 µM (inactive) | 19.6 µM (inactive) | 14.5 µM (inactive) | 19.1 µM (inactive) | 18.3 µM (inactive) | 24.7 µM (inactive) | 19.8 µM (inactive) | 21.5 µM (inactive) | 21.2 µM (inactive) | 12.6 µM (inactive) | 20.7 µM (inactive) | 22.5 µM (inactive) |
| Cc1cc2nc3c(C#N)c4c(c(-c5ccc(Cl)cc5)n3c2cc1C)CCC4 | 21.4 µM (inactive) | 22.4 µM (inactive) | 20.4 µM (inactive) | 22.3 µM (inactive) | 38.5 µM (inactive) | 20.3 µM (inactive) | 19.6 µM (inactive) | 29.2 µM (inactive) | 18.4 µM (inactive) | 17.5 µM (inactive) |  | 24.2 µM (inactive) | 23.3 µM (inactive) | 18.2 µM (inactive) | 19 µM (inactive) | 28.1 µM (inactive) | 19.1 µM (inactive) | 45 µM (inactive) | 22.2 µM (inactive) | 30.4 µM (inactive) |
| N#Cc1nc(/C=C/c2ccccc2)oc1N | > 100 µM (inactive) | > 100 µM (inactive) | 13.1 µM (inactive) | > 100 µM (inactive) | 20.7 µM (inactive) | > 100 µM (inactive) | > 100 µM (inactive) | > 100 µM (inactive) |  | > 100 µM (inactive) | > 100 µM (inactive) | > 100 µM (inactive) | > 100 µM (inactive) | > 100 µM (inactive) | > 100 µM (inactive) | > 100 µM (inactive) | > 100 µM (inactive) | > 100 µM (inactive) | > 100 µM (inactive) | > 100 µM (inactive) |
| c1ccc(SCCc2ccncc2)cc1 | > 100 µM (inactive) | > 100 µM (inactive) | > 100 µM (inactive) | 52.1 µM (inactive) | 98.2 µM (inactive) | 45.7 µM (inactive) | 35.8 µM (inactive) | > 100 µM (inactive) | > 100 µM (inactive) | 75 µM (inactive) | > 100 µM (inactive) | 46 µM (inactive) | > 100 µM (inactive) | > 100 µM (inactive) | > 100 µM (inactive) | 70 µM (inactive) | 67.6 µM (inactive) | > 100 µM (inactive) | > 100 µM (inactive) | > 100 µM (inactive) |
| CCCCOCCOC1=CC(=O)c2c(O)ccc(O)c2C1=O | 1.03 µM (active) | 0.458 µM (active) | 1.63 µM (inactive) | 2.06 µM (inactive) | 1.92 µM (inactive) | 2.56 µM (inactive) | 0.216 µM (active) | 2.59 µM (inactive) | 1.51 µM (inactive) | 1 µM (active) |  | 1.69 µM (inactive) | 0.24 µM (active) | > 10 µM (inactive) | 1.69 µM (inactive) | 1.64 µM (inactive) | 1.7 µM (inactive) | 1.66 µM (inactive) | 1.95 µM (inactive) | 1.45 µM (inactive) |
| Cc1ncc(C/N=C/c2ccc(Cl)cc2)c(N)n1 | > 100 µM (inactive) | > 100 µM (inactive) | > 100 µM (inactive) | > 100 µM (inactive) | > 100 µM (inactive) | > 100 µM (inactive) | > 100 µM (inactive) | > 100 µM (inactive) | > 100 µM (inactive) | > 100 µM (inactive) | > 100 µM (inactive) | > 100 µM (inactive) | > 100 µM (inactive) | > 100 µM (inactive) | > 100 µM (inactive) | > 100 µM (inactive) | > 100 µM (inactive) | > 100 µM (inactive) | > 100 µM (inactive) | > 100 µM (inactive) |
| COC(=O)c1c(OC(C)=O)ccc2c1c1c(OC(C)=O)c3ccccc3c(OC(C)=O)c1n2Cc1ccccc1 | 16.3 µM (inactive) | 8.61 µM (inactive) | 4.76 µM (inactive) | 1.16 µM (inactive) | 2.39 µM (inactive) | 0.658 µM (active) | 3.02 µM (inactive) | 1.55 µM (inactive) | 2.72 µM (inactive) | 2.93 µM (inactive) | 9.44 µM (inactive) | 2.56 µM (inactive) | 7.8 µM (inactive) | 3.67 µM (inactive) | 1.37 µM (inactive) | 13.7 µM (inactive) | 6.03 µM (inactive) | 5.77 µM (inactive) | 4.09 µM (inactive) |  |
| CC(C)c1nc(Cl)nc(Cl)c1Cl | 0.256 µM (active) | 0.794 µM (active) | 0.0113 µM (active) | 0.6 µM (active) | 0.249 µM (active) | 0.0233 µM (active) | 0.861 µM (active) | 0.401 µM (active) | 0.266 µM (active) | 0.0843 µM (active) | 0.436 µM (active) | 1.63 µM (inactive) | 0.304 µM (active) | 4.58 µM (inactive) | 0.239 µM (active) | 3.27 µM (inactive) | 0.474 µM (active) | 0.365 µM (active) | 1.24 µM (inactive) | < 0.0233 µM (active) |
| C=CCOc1ccc(C2C(C(=O)OC)C(=O)CC(O)(c3ccccc3)C2C(=O)OC)cc1OC (configuration not stated) | 58.1 µM (inactive) | 42.4 µM (inactive) | 30.6 µM (inactive) | 20.8 µM (inactive) | 23.6 µM (inactive) | 18 µM (inactive) | 35.3 µM (inactive) | 31.7 µM (inactive) | 27.4 µM (inactive) |  | 19.7 µM (inactive) | 62.7 µM (inactive) | 31.6 µM (inactive) |  | 26.4 µM (inactive) | 22.8 µM (inactive) | 31.8 µM (inactive) | 15.9 µM (inactive) | 18.4 µM (inactive) | > 100 µM (inactive) |
| CC(=O)O[C@H]1C(=O)[C@@]2(C)[C@H]([C@H](OC(=O)c3ccccc3)[C@]3(O)C[C@H](OC(=O)[C@H](O)[C@@H](NC(=O)CC(C)C)c4ccccc4)C(C)=C1C3(C)C)[C@]1(OC(C)=O)CO[C@@H]1C[C@@H]2O | 0.015 µM (active) | 0.0221 µM (active) | 0.248 µM (active) | 0.00399 µM (active) | > 10 µM (inactive) | 0.508 µM (active) | 0.00251 µM (active) | 0.00281 µM (active) | 0.00475 µM (active) |  | 0.00548 µM (active) | 0.428 µM (active) | 0.0135 µM (active) | 0.00433 µM (active) | 0.00239 µM (active) | 0.247 µM (active) | 0.00321 µM (active) | 0.0141 µM (active) | > 10 µM (inactive) | 0.00289 µM (active) |
